Measured values: PubChem BioAssay (NCI)
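A five-concentration, 48-hour dose response in 96-well plates underlies each endpoint, interpolated linearly between surrounding concentrations. TGI denotes the concentration required for complete inhibition of growth.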

Key:
Test in all cases: NCI-60 cell line screen, 48 h
U251 CNS = test system: U251 CNS
SNB-75 CNS = test system: SNB-75 CNS
A549 NSCLC = test system: A549 NSCLC
UACC-257 melanoma = test system: UACC-257 melanoma
RXF 393 renal = test system: RXF 393 renal
ACHN renal = test system: ACHN renal
HT29 colon = test system: HT29 colon
HCT-15 colon = test system: HCT-15 colon
SF-539 CNS = test system: SF-539 CNS
CCRF-CEM leukemia = test system: CCRF-CEM leukemia
SK-OV-3 ovarian = test system: SK-OV-3 ovarian
SF-268 CNS = test system: SF-268 CNS
SK-MEL-28 melanoma = test system: SK-MEL-28 melanoma
MDA-MB-435 = test system: MDA-MB-435
SK-MEL-2 melanoma = test system: SK-MEL-2 melanoma
K-562 leukemia = test system: K-562 leukemia
HL-60(TB) leukemia = test system: HL-60(TB) leukemia
UO-31 renal = test system: UO-31 renal

SMILES | TGI (U251 CNS) | TGI (SNB-75 CNS) | TGI (A549 NSCLC) | TGI (UACC-257 melanoma) | TGI (RXF 393 renal) | TGI (ACHN renal) | TGI (HT29 colon) | TGI (HCT-15 colon) | TGI (SF-539 CNS) | TGI (CCRF-CEM leukemia) | TGI (SK-OV-3 ovarian) | TGI (SF-268 CNS) | TGI (SK-MEL-28 melanoma) | TGI (MDA-MB-435) | TGI (SK-MEL-2 melanoma) | TGI (K-562 leukemia) | TGI (HL-60(TB) leukemia) | TGI (UO-31 renal)
Cc1ccc(S(=O)(=O)Nn2c(S)c(C#N)c(-c3ccc([N+](=O)[O-])cc3)c(C#N)c2=O)cc1 | 98 µM | > 100 µM | > 100 µM | > 100 µM | > 100 µM | > 100 µM | > 100 µM | 49.7 µM | 35.4 µM | 52.6 µM | > 100 µM | > 100 µM | > 100 µM | 53.9 µM | 80.1 µM | 53.2 µM |  | 
CN(CCCN(C)CCc1ccc(Cl)c(Cl)c1)CCCN1CCCC1 | 4.62 µM | 8.91 µM | 11.2 µM | 3.46 µM | 4.58 µM | 19.2 µM | 2.58 µM | 7.22 µM |  | 2.12 µM | 23.1 µM | 7.02 µM | 3.18 µM | 1.42 µM | 3.48 µM | 1.3 µM | 4.12 µM | 2.76 µM
CC(=O)N1N(c2ccc([N+](=O)[O-])cc2)C(=O)C1(C)C | 52.8 µM | 37.7 µM |  |  | 32.3 µM | 41.5 µM | 44.8 µM | 34.5 µM | 49.7 µM | 33.3 µM | > 100 µM | 87.1 µM | 37.4 µM | 63.1 µM | 37.4 µM | 60.5 µM |  | 32.4 µM
Cc1ccc2c(c1)-c1c(C#N)c(N)nc(-c3ccccc3)c1CCS2(=O)=O | > 90.7 µM | 59.2 µM | > 100 µM | > 100 µM |  | > 100 µM | > 35 µM | > 100 µM | > 100 µM | > 100 µM | 46 µM | > 100 µM | > 100 µM | > 36.5 µM | > 100 µM | 11.7 µM |  | 97 µM
Nc1ncnc2c1cnn2Cc1cn(COCC(O)CO)nn1 (configuration not stated) | > 100 µM |  | > 100 µM | > 100 µM |  | > 100 µM | > 100 µM | > 100 µM | > 100 µM | > 100 µM | > 100 µM | 34.9 µM | > 100 µM | > 100 µM | > 100 µM |  | > 100 µM | > 100 µM
Cc1ccc(-c2c(C#N)c(N)nc3c2CCS(=O)(=O)c2ccccc2-3)cc1 | > 100 µM | 78.9 µM | > 100 µM | > 100 µM |  | > 100 µM | > 100 µM | > 100 µM |  |  |  | > 100 µM | > 100 µM | > 100 µM | > 100 µM | > 100 µM |  | > 100 µM
COc1ccc(C(=O)N(C(=S)OCCOc2ccccc2)c2ccccc2)cc1 | > 100 µM | 27.9 µM | > 100 µM | > 100 µM | 98.5 µM | > 100 µM | > 100 µM | > 100 µM | > 100 µM | 66.3 µM | > 100 µM | > 100 µM | > 100 µM | > 100 µM | 68.5 µM | > 100 µM | 51.9 µM | 29.9 µM
CC(C)/C(Cl)=N\OC(=O)Nc1ccc(F)cc1F | 32.8 µM | 33.6 µM | 34.6 µM | 27.7 µM | 12.6 µM | 8.53 µM | 15.8 µM | 21.8 µM | 30.6 µM | > 21.7 µM | 30.8 µM | 38.9 µM | 25.4 µM |  | 28.2 µM | > 100 µM | 0.626 µM | 17.8 µM
C=CCCCC1CCCNC1=S (configuration not stated) | > 100 µM | > 100 µM | > 100 µM | > 100 µM | > 100 µM | > 100 µM | > 100 µM | > 100 µM | > 100 µM |  | > 100 µM | > 100 µM | > 100 µM | > 100 µM | > 100 µM | > 100 µM |  | > 100 µM
C[n+]1cccc2ccc(OC(=O)c3ccccc3)cc21 |  | > 100 µM | > 100 µM | > 100 µM | > 100 µM | > 100 µM | > 100 µM | > 100 µM | > 100 µM |  | > 100 µM | > 100 µM |  | > 100 µM | > 100 µM | > 100 µM |  | > 100 µM
COC(=O)C1=C(CCCCO[Si](C)(C)C(C)(C)C)NC(=O)N2[C@@H](CCOCc3ccccc3)CC[C@H]12 | 28.2 µM | > 100 µM | 77.7 µM | > 100 µM |  | > 100 µM | 35.1 µM | 43.9 µM |  | 51.9 µM | > 100 µM | > 100 µM | > 100 µM | > 100 µM | 35.8 µM | > 100 µM |  | 56.2 µM
CC(C)(CO)NC(=O)Nc1c(C(F)(F)F)cc(-c2ccccc2)[nH]c1=O | > 100 µM |  | > 100 µM | > 100 µM | > 100 µM | > 100 µM | > 100 µM | > 100 µM |  | > 100 µM | > 100 µM | > 100 µM | > 100 µM | > 100 µM | > 100 µM | > 100 µM |  | > 100 µM
